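Following 48 hours of exposure in 96-well plates, responses at five concentrations were used to interpolate endpoints linearly. Abbreviation: GI50, concentration required for 50% inhibition of growth. TGI is the concentration that stops growth completely.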
Tests used:
Experiment in all cases: DTP human tumour cell line panel, 48 h
[1] = test system: OVCAR-8 ovarian
[2] = test system: NCI-H522 lung
[3] = test system: HOP-92 NSCLC
[4] = test system: SF-295 CNS
[5] = test system: RXF 393 renal
[6] = test system: MCF7 breast
[7] = test system: MDA-MB-435
[8] = test system: MALME-3M melanoma
[9] = test system: SK-MEL-5 melanoma
[10] = test system: MDA-MB-231 breast
[11] = test system: 786-0 renal
[12] = test system: SW-620 colon
[13] = test system: T-47D breast
[14] = test system: KM12 colon
[15] = test system: SNB-19 CNS
[16] = test system: U251 CNS
[17] = test system: SF-539 CNS
[18] = test system: ACHN renal
[19] = test system: HS 578T breast
[20] = test system: NCI-H460 lung
[21] = test system: UACC-62 melanoma
[22] = test system: NCI-H23 lung
[23] = test system: PC-3 prostate
[24] = test system: SK-MEL-28 melanoma
[25] = test system: HCC-2998 colon
[26] = test system: OVCAR-4 ovarian
[27] = test system: BT-549 breast
[28] = test system: HCT-15 colon
[29] = test system: K-562 leukemia
[30] = test system: SK-OV-3 ovarian
[31] = test system: SF-268 CNS
[32] = test system: CAKI-1 renal
[33] = test system: HOP-62 NSCLC
[34] = test system: SR leukemia
[35] = test system: LOX IMVI melanoma
[36] = test system: HT29 colon
[37] = test system: EKVX NSCLC
[38] = test system: A549 NSCLC
[39] = test system: UACC-257 melanoma
[40] = test system: MOLT-4 leukemia
[41] = test system: TK-10 renal
[42] = test system: SN12C renal
[43] = test system: NCI/ADR-RES ovarian
[44] = test system: IGROV1 ovarian
[45] = test system: SK-MEL-2 melanoma
[46] = test system: M14 melanoma
[47] = test system: HL-60(TB) leukemia
[48] = test system: OVCAR-3 ovarian
[49] = test system: UO-31 renal
[50] = test system: NCI-H226 lung
[51] = test system: CCRF-CEM leukemia
[52] = test system: DU-145 prostate
[53] = test system: SNB-75 CNS
[54] = test system: COLO 205 colon
[55] = test system: OVCAR-5 ovarian
[56] = test system: HCT-116 colon
[57] = test system: RPMI-8226 leukemia

COc1cc2c(cc1OCCCCCn1c(-c3ccc(OCc4ccccc4)cc3)nc3cc(N4CCOCC4)ccc31)N=C[C@@H]1CCCN1C2=O
GI50 [1]: 2.78 µM
TGI [1]: > 50.9 µM
GI50 [2]: 2.15 µM
TGI [2]: 8.35 µM
GI50 [3]: 2.11 µM
TGI [3]: 26.2 µM
GI50 [4]: 4.84 µM
TGI [4]: > 100 µM
TGI [5]: 2.38 µM
GI50 [6]: 1.18 µM
TGI [6]: 8.77 µM
GI50 [7]: 1.87 µM
TGI [7]: 4.38 µM
GI50 [8]: 2.08 µM
TGI [8]: 4.49 µM
GI50 [9]: 1.66 µM
TGI [9]: 3.13 µM
GI50 [10]: 2.8 µM
TGI [10]: > 47.2 µM
GI50 [11]: 3.24 µM
TGI [11]: > 69.3 µM
GI50 [12]: 2.12 µM
TGI [12]: 8.29 µM
GI50 [13]: 2.17 µM
TGI [13]: 7.73 µM
GI50 [14]: 1.93 µM
TGI [14]: 4.73 µM
GI50 [15]: 3.71 µM
TGI [15]: > 49.8 µM
GI50 [16]: 2.23 µM
TGI [16]: > 100 µM
GI50 [17]: 2.42 µM
TGI [17]: 5.41 µM
GI50 [18]: 2.63 µM
TGI [18]: 8.31 µM
GI50 [19]: 2.84 µM
TGI [19]: 12.8 µM
GI50 [20]: 2.17 µM
TGI [20]: 5.93 µM
GI50 [21]: 1.72 µM
TGI [21]: 3.67 µM
GI50 [22]: 2.62 µM
TGI [22]: 6.53 µM
GI50 [23]: 3.88 µM
TGI [23]: > 100 µM
GI50 [24]: 2.18 µM
TGI [24]: 4.61 µM
GI50 [25]: 2.09 µM
TGI [25]: 4.14 µM
GI50 [26]: 3.4 µM
TGI [26]: 59.4 µM
GI50 [27]: 1.52 µM
TGI [27]: 5.68 µM
GI50 [28]: 2.81 µM
TGI [28]: > 31.3 µM
TGI [29]: > 100 µM
GI50 [30]: 4.16 µM
TGI [30]: > 100 µM
GI50 [31]: 2.91 µM
TGI [31]: 10.4 µM
GI50 [32]: 1.43 µM
TGI [32]: 9 µM
GI50 [33]: 3.58 µM
TGI [33]: 40 µM
GI50 [34]: 1.05 µM
GI50 [35]: 2.02 µM
TGI [35]: 7.85 µM
GI50 [36]: 3.26 µM
TGI [36]: > 100 µM
GI50 [37]: 4.74 µM
TGI [37]: 20.7 µM
GI50 [38]: 2.43 µM
TGI [38]: 7.95 µM
GI50 [39]: 3.04 µM
TGI [39]: 7.78 µM
GI50 [40]: 2.93 µM
TGI [40]: > 26.6 µM
GI50 [41]: 3.45 µM
TGI [41]: > 36.2 µM
GI50 [42]: 3.11 µM
TGI [42]: 47 µM
GI50 [43]: 3.3 µM
TGI [43]: 26.1 µM
GI50 [44]: 1.17 µM
TGI [44]: 5.88 µM
GI50 [45]: 0.729 µM
TGI [45]: 3.02 µM
GI50 [46]: 2 µM
TGI [46]: 4.56 µM
GI50 [47]: 2.31 µM
TGI [47]: > 19.9 µM
GI50 [48]: 2.06 µM
TGI [48]: 5.36 µM
GI50 [49]: 0.377 µM
GI50 [50]: 1.88 µM
TGI [50]: 4.56 µM
GI50 [51]: 1.4 µM
GI50 [52]: 2.57 µM
TGI [52]: 11.3 µM
GI50 [53]: 1.99 µM
TGI [53]: 6.63 µM
GI50 [54]: 2.15 µM
TGI [54]: 5.13 µM
GI50 [55]: 3.49 µM
TGI [55]: > 28.9 µM
GI50 [56]: 2.39 µM
TGI [56]: > 100 µM

[N-]=[N+]=Nc1c(Cc2ccccc2)c(=O)oc2ccccc12
TGI [4]: > 100 µM
TGI [5]: 38 µM
TGI [6]: 70.9 µM
TGI [7]: 58.5 µM
TGI [8]: > 100 µM
TGI [9]: 20.2 µM
TGI [10]: > 100 µM
TGI [11]: > 100 µM
TGI [12]: 39.7 µM
TGI [13]: > 100 µM
TGI [15]: > 100 µM
TGI [16]: 69.7 µM
TGI [18]: > 100 µM
TGI [19]: 61.3 µM
TGI [20]: 57.3 µM
TGI [22]: 78.1 µM
TGI [23]: > 100 µM
TGI [25]: 62.1 µM
TGI [26]: > 100 µM
TGI [27]: 46.9 µM
TGI [28]: > 100 µM
TGI [29]: 86.9 µM
TGI [57]: > 100 µM
TGI [30]: > 100 µM
TGI [31]: 62.1 µM
TGI [32]: > 100 µM
TGI [33]: 50.3 µM
TGI [34]: > 100 µM
TGI [35]: 28.4 µM
TGI [36]: 54.5 µM
TGI [38]: > 100 µM
TGI [39]: > 100 µM
TGI [40]: 26.2 µM
TGI [41]: 60.4 µM
TGI [43]: > 100 µM
TGI [44]: 70.6 µM
TGI [45]: 78.8 µM
TGI [46]: 62.3 µM
TGI [47]: > 100 µM
TGI [48]: > 100 µM
TGI [49]: > 100 µM
TGI [51]: 45.8 µM
TGI [52]: > 100 µM
TGI [53]: > 100 µM
TGI [54]: 98.4 µM
TGI [55]: > 100 µM

— PubChem BioAssay (NCI)
